Earlier results in US20240024253A1, “Continuous Drug Delivery Systems and Methods” (Pike Therapeutics Inc., priority 2022, published 2024).

What was measured:
[1] = biological target: CB1 cannabinoid receptor; details: parameter not named at the place
[2] = biological target: CB2 cannabinoid receptor (Homo sapiens, UniProt P34972); details: CB2 versus CB1
Sequence of CB2 cannabinoid receptor (P34972 whole entry): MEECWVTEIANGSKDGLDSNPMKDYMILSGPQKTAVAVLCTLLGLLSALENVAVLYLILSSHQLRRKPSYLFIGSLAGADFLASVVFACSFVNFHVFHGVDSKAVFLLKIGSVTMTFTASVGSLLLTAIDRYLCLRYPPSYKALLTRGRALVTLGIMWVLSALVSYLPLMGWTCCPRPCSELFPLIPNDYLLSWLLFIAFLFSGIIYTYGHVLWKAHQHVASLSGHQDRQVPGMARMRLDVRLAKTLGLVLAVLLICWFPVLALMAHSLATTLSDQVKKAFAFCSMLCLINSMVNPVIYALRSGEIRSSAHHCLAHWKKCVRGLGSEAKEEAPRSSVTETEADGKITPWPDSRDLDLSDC

CCCCCn1cc(Cc2cccc3ccccc23)c2ccccc21 [JWH-175, (1-pentylindol-3-yl)naphthalen-1-ylmethane]
Ki [1]: 22 nM

CCCn1c(C)c(C(=O)c2ccc(C)c3ccccc23)c2ccccc21 [JWH-148]
selectivity for CB2 over the CB1 subtype [2]: more than 8 times

CCCCCCC(C)(C)c1cc(O)c2c(c1)oc(=O)c1ccc(OC)cc12 [AM-1710]
selectivity / binding strength CB2 over CB1 [2]: 54 ×

CCCCCCC(C)(C)c1cc(OC)c2c(c1)OC(C)(C)C1CCC(O)CC21 (stereo not drawn) [JWH-350, 11-nor-1-methoxy-3-(1′,1′-dimethylheptyl)-9α-hydroxyhexahydrocannabinol]
selectivity for CB2 receptor [2]: 33 fold

CCCn1cc(C(=O)c2ccc(C)c3ccccc23)c2ccccc21 [JWH-120]
selectivity for CB2 receptor [2]: 173 fold
